Laboratory results: patent US20200123555A1, “USE OF MALONYLTRANSFERASE GENE” (Suntory Holdings Limited, priority 2017, published 2020)

How the values were obtained:
Dm3MaT3 [1] = experiment: Enzyme activity, His-tag purified Dm3MaT3 protein solution; assay type: biochemical, chrysanthemum; details: 10 μg Dm3MaT3 protein, 5 μl of 500 μg/ml substrate, malonyl-CoA, 20 minutes at 30° C., pH 7.0
Protocol: The Escherichia coli strain BL21 introduced with pET32a-Dm3MaT3 described in Example 1 was cultured using the Overnight Express Autoinduction System 1 (Novagen) in accordance with the protocol recommended by the manufacturer. The transformed Escherichia coli was cultured at 37° C. in 8 ml of prepared culture broth until the OD600 value reached 0.5 (approximately 4 hours). This Escherichia coli broth was used as pre-culture broth and added to 200 ml of culture broth followed by culturing overnight at 25° C.
After culturing overnight, the Escherichia coli broth was centrifuged (1000×g, 4° C., 10 minutes) and the harvested bacterial cells were suspended in 20 ml of extraction buffer (composition: 300 mM KCl, 50 mM KH2PO4, 5 mM imidazole (pH 8.0), 10 μM amidinophenylmethanesulfonyl fluoride hydrochloride (APMSF)) followed by disrupting the Escherichia coli by ultrasonication, centrifuging (1400×g, 4° C., 20 minutes) and recovering the supernatant. The supernatant was passed through a 0.45 μm and subjected to His-Tagged purification using Profinia (Bio-Rad) in accordance with the protocol recommended by the manufacturer. The resulting purified protein solution was centrifuged (7500×g, 4° C., 15 minutes) using Centrifugal Filters (Ultracel-10K, Amicon Ultra) and the concentrated protein solution was used as “Dm3MaT3 protein solution”. The Avanti HP-26XP (rotor: JA-2) (Beckman Coulter) was used for centrifugation.
A reaction solution, obtained by mixing 30 μl of Dm3MaT3 protein solution (10 μg), 5 μl of 1 mg/ml malonyl-CoA, 5 μl of 1 M KPB (pH 7.0), 5 μl of 500 μg/ml luteolin 7-glucoside (dissolved in a 50% aqueous acetonitrile solution containing 0.1% TFA) and adjusting to a volume of 100 μl with water on ice, was held for 20 minutes at 30° C. Subsequently, 100 μl of stop buffer (90% aqueous acetonitrile solution containing 0.1% TFA) were added to stop the reaction followed by analyzing the reaction solution by high-performance liquid chromatography (Prominence, Shimadzu Corp.). Flavone was detected at 330 nm using the Shimadzu PDA SPD-M20A for the detector. […]

Dm3MaT3 [2] = experiment: Enzyme activity, protein solution crudely extracted from Escherichia coli expressing Dm3MaT3; assay type: biochemical, chrysanthemum; details: substrate with malonyl-CoA
Protocol: The Shim-Pack ODS 150 mm×4.6 mm column (Shimadzu Corp.) was used for the column. […] The flow rate was 0.6 ml/min.

Dm3MaT3 [3] = experiment: Malonyl transfer activity of flower petal crude enzyme solution from genetically engineered rose introduced with Dm3MaT3 gene; assay type: biochemical; details: 2.5 μl of 1 mM apigenin, malonyl-CoA, 20 minutes at 30° C.; genetically engineered rose petals
Text: In order to confirm that the Dm3MaT3 gene of the present invention encodes a protein having activity that transfers a malonyl group to position 6 of the glucose at position 7 of flavone 7-glucoside in plants, a binary vector pSPB7136 was constructed to express Dm3MaT3 in plants (see FIG. 8) and subsequently introduced into a rose (variety: Ocean Song). pBINPLUS (Van Engel et al., Transgenic Research 4, 288) was used for the basic skeleton, E1235S promoter (Mitsuhara et al., (1996) Plant Cell Physiol., 37, p. 49) was used for the promoter expressing Dm3MaT3 gene, and HSP terminator (Plant Cell Physiol. (2010) 51, 328-332) was used for the terminator in pSPB7136.
A crude enzyme solution was prepared from the petals of a rose strain in which was synthesized the transcription product of full-length cDNA Dm3MaT3 followed by an evaluation of the presence or absence of activity transferring a malonyl group to position 6 of the glucose at position 7 of flavone 7-glucoside. […]
A reaction solution, obtained by mixing 20 μl of the flower petal crude enzyme solution, 5 μl of 1 mg/ml malonyl-CoA, 5 μl of 1 M KPB (pH 7.0) and 2.5 μl of 1 mM apigenin (dissolved in 50% aqueous acetonitrile solution containing 0.1% TFA) and adjusting to a volume of 100 μl with water on ice, was held for 20 minutes at 30° C. […] Flavone was detected at 330 nm using the Shimadzu PDA SPD-M20A for the detector. […]

Dm3MaT2 = experiment: Enzyme activity, protein solution crudely extracted from Escherichia coli expressing Dm3MaT2; assay type: biochemical, chrysanthemum; details: substrate with malonyl-CoA, 20 minutes at 30° C., pH 7.0, detection 330 nm
Dm3MaT1 = experiment: Enzyme activity, protein solution crudely extracted from Escherichia coli expressing Dm3MaT1; assay type: biochemical, chrysanthemum; details: substrate with malonyl-CoA, 20 minutes at 30° C., pH 7.0, detection 330 nm

O=c1cc(-c2ccc(O[C@@H]3O[C@H](CO)[C@@H](O)[C@H](O)[C@H]3O)c(O)c2)oc2cc(O)cc(O)c12 [luteolin 4′-glucoside]
reaction rate (percentage of substrate converted) (Dm3MaT3 [1]): 34.81%

OC[C@H]1O[C@@H](Oc2cc3c(O)cc(O)cc3[o+]c2-c2ccc(O)c(O)c2)[C@H](O)[C@@H](O)[C@@H]1O [cyanidin 3-glucoside]
amount of cyanidin 3-glucoside consumed in comparison with Dm3MaT1 (Dm3MaT3 [2]; detection 520 nm): clearly less
peak corresponding to cyanidin 3-malonylglucoside (HPLC) (Dm3MaT3 [2]; detection 520 nm): detected

O=c1cc(-c2ccc(O)cc2)oc2cc(O)cc(O)c12 [apigenin]
peak corresponding to 7-malonylglucoside, share of the apigenin compounds in the enzyme reaction solution (Dm3MaT3 [3]): 2.04%

O=c1cc(-c2ccc(O)c(O)c2)oc2cc(O[C@@H]3O[C@H](CO)[C@@H](O)[C@H](O)[C@H]3O)cc(O)c12 [luteolin 7-glucoside]
peak corresponding to luteolin 7-malonylglucoside (HPLC) (Dm3MaT3 [2]; 20 minutes at 30° C., pH 7.0, detection 330 nm): detected
peak corresponding to luteolin 7-malonylglucoside (HPLC) (Dm3MaT2): not detected
reaction rate (percentage of substrate converted) (Dm3MaT3 [1]): 81.13%
peak corresponding to luteolin 7-malonylglucoside (HPLC) (Dm3MaT1): not detected

O=c1cc(-c2ccc(O)cc2)oc2cc(O[C@@H]3O[C@H](CO)[C@@H](O)[C@H](O)[C@H]3O)cc(O)c12 [apigenin 7-glucoside]
reaction rate (percentage of substrate converted) (Dm3MaT3 [1]): 85.80%
